# Assay: Dynamic light scattering (DLS) particle size
# Assay type: physicochemical
# Details: in chloroform; reverse micelles at w=11.9
# Procedure: Samples for dynamic light scattering are prepared by dissolving 1 mg of sample into 4 mL of solvent. The solution was then filtered through a 0.45 μm syringe filter into quartz cuvette with a path length of 2 cm. The measurements are obtained on a Malvern Zetasizer Nano.
# Solubility properties dictate that gluc anions reside in the aqueous polar region of the reverse micelle and remain associated with CDA through the pairing of carboxylate with the cationic […] head group of CDA.
substance,measurement,value
Acetamido Cetyl Dimethyl Ammonium Glucuronate [CDA-gluc],average diameter (DLS),14 nm

# From patent US20160367705A1, “NANOPARTICLES COMPRISED OF SHELLS ASSOCIATED WITH CHARGED ENTITIES AND FORMED FROM MONOMERS AND METHODS OF MAKING AND USING NANOPARTICLES” (New York University, priority 2015, published 2016)
